Results on two compounds are retold here after patent US9090627B2 (priority 2012, dated 2015).

For data set [1] the following is noted: rat.
The conditions of data set [2]: human.
For the next data set, the system named is mice. The note with it: mouse, in vivo; cited from earlier work.

In the case of `CCN1C[C@]2(COC)[C@H](O)C[C@H](OC)[C@@]34[C@@H]5C[C@@]6(O)[C@H](OC(=O)c7ccccc7)[C@@H]5[C@@](OC(C)=O)([C@@H]([C@H](OC)[C@H]23)[C@@H]14)[C@@H](O)[C@@H]6OC` [aconitine], the “Skin penetration behavior (layer reached)” value in data set [1] is recorded as “Complete skin penetration”. In addition, in data set [2], the “Change in penetration with application time” value is “increased penetration occurring at 4 and 10 hours of application in comparison to 1 hour”. For the compound Batrachotoxin, the LD50 in mice in the data set on mice was 2 µg/kg.
